System: modified version of the GPR119 receptor (94% identity to human receptor)
Assay: cAMP production assay (LANCE cAMP kit, TR-FRET) in HEK-293 cells
Format: cell-based
Conditions: for cAMP production in HEK-293 cells: HEK-293 cells stably expressing modified GPR119, test compounds 0.2 nM to 10 μM, one-hour incubation; for Fold over baseline: increase in cAMP relative to basal levels, agonist activity if 1.5-fold or greater
Outline: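 Agonist activity meant a 1.5-fold or greater cAMP rise over basal, with levels interpolated from a standard curve after TR-FRET competition read-out. HEK-293 cells with tetracycline-inducible modified GPR119 (1 μg/mL doxycycline overnight) were incubated one hour at ambient temperature with 0.2 nM to 10 μM compound, 0.5% DMSO.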

Row | SMILES | cAMP production in HEK-293 cells [nmol] | Fold over baseline
1 | CC(C)c1nsc(N2CCC(N3CCC(Oc4ccc(-n5cnnn5)nc4)C3=O)CC2)n1 (stereo not shown) [Example 82, 3-(6-(1H-tetrazol-1-yl)pyridin-3-yloxy)-1-(1-(3-isopropyl-1,2,4-thiadiazol-5-yl)piperidin-4-yl)pyrrolidin-2-one] | 12.8 | 2.4
2 | CC(C)c1nsc(N2CCC(N3CCC(Oc4ccc(-c5nnn(C)n5)cc4)C3=O)CC2)n1 (stereo not shown) [Example 83, 1-(1-(3-isopropyl-1,2,4-thiadiazol-5-yl)piperidin-4-yl)-3-(4-(2-methyl-2H-tetrazol-5-yl)phenoxy)pyrrolidin-2-one] | 14.9 | 2.5
3 | CC(C)c1nsc(N2CCC(N3CCC(Oc4ccc(-n5cnnn5)cc4)C3=O)CC2)n1 (stereo not shown) [Example 84, 3-(4-(1H-tetrazol-1-yl)phenoxy)-1-(1-(3-isopropyl-1,2,4-thiadiazol-5-yl)piperidin-4-yl)pyrrolidin-2-one] | 18.8 | 4.2
4 | CC(C)c1nsc(N2CCC(N3CCCC(Oc4cc(F)c(S(C)(=O)=O)cc4F)C3=O)CC2)n1 (stereo not shown) [Example 85, 3-(2,5-Difluoro-4-(methylsulfonyl)phenoxy)-1′-(3-isopropyl-1,2,4-thiadiazol-5-yl)-[1,4′-bipiperidin]-2-one] | 16.2 | 3.8
5 | CS(=O)(=O)c1ccc(O[C@H]2CCN(C3CCN(c4nc(C(F)(F)F)ns4)CC3)C2=O)c(F)c1 [Example 86, (S)-3-(2-Fluoro-4-(methylsulfonyl)phenoxy)-1-(1-(3-(trifluoromethyl)-1,2,4-thiadiazol-5-yl)piperidin-4-yl)pyrrolidin-2-one] | 11.1 | 3.4
6 | CS(=O)(=O)c1ccc(N[C@H]2CCCN(C3CCN(c4nc(C(F)(F)F)ns4)CC3)C2=O)c(F)c1 [Example 87, (S)-3-(2-fluoro-4-(methylsulfonyl)phenylamino)-1′-(3-(trifluoromethyl)-1,2,4-thiadiazol-5-yl)-[1,4′-bipiperidin]-2-one] | 13.6 | 2.1
7 | CS(=O)(=O)c1cc(F)c(N[C@H]2CCN(C3CCN(c4nc(C(F)(F)F)ns4)CC3)C2=O)c(F)c1 [Example 88, (S)-3-(2,6-difluoro-4-(methylsulfonyl)phenylamino)-1-(1-(3-(trifluoromethyl)-1,2,4-thiadiazol-5-yl)piperidin-4-yl)pyrrolidin-2-one] | 11.8 | 3.0
8 | CS(=O)(=O)c1cc(F)c(N[C@H]2CCN(C3CCN(c4nc(C(F)(F)F)ns4)CC3)C2=O)cc1F [Example 89, (S)-3-(2,5-difluoro-4-(methylsulfonyl)phenylamino)-1-(1-(3-(trifluoromethyl)-1,2,4-thiadiazol-5-yl)piperidin-4-yl)pyrrolidin-2-one] | 15.1 | 3.8
9 | CS(=O)(=O)c1ccc(N[C@H]2CCN(C3CCN(c4nc(C(F)(F)F)ns4)CC3)C2=O)c(F)c1 [Example 90, (S)-3-(2-fluoro-4-(methylsulfonyl)phenylamino)-1-(1-(3-(trifluoromethyl)-1,2,4-thiadiazol-5-yl)piperidin-4-yl)pyrrolidin-2-one] | 8.5 | 2.9
10 | CS(=O)(=O)c1cc(F)c(O[C@H]2CCN(C3CCN(c4nc(C(F)(F)F)ns4)CC3)C2=O)cc1F [Example 91, (S)-3-(2,5-difluoro-4-(methylsulfonyl)phenoxy)-1-(1-(3-(trifluoromethyl)-1,2,4-thiadiazol-5-yl)piperidin-4-yl)pyrrolidin-2-one] | 25.6 | 5.4
11 | CC(C)c1nsc(N2CCC(N3CCC(Cc4ccc(S(C)(=O)=O)cc4)C3=O)CC2)n1 (stereo not shown) [Example 92, 1-(1-(3-isopropyl-1,2,4-thiadiazol-5-yl)piperidin-4-yl)-3-(4-(methylsulfonyl)benzyl)pyrrolidin-2-one] | 18.4 | 2.8
12 | CS(=O)(=O)c1cc(F)c(O[C@H]2CCCN(C3CCN(c4nc(C(F)(F)F)ns4)CC3)C2=O)cc1F [Example 93, (S)-3-(2,5-difluoro-4-(methylsulfonyl)phenoxy)-1′-(3-(trifluoromethyl)-1,2,4-thiadiazol-5-yl)-[1,4′-bipiperidin]-2-one] | 9.0 | 2.9
13 | CC(C)c1nsc(N2CCC(N3CC[C@H](Oc4ccc(S(C)(=O)=O)nc4)C3=O)CC2)n1 [Example 94, (S)-1-(1-(3-isopropyl-1,2,4-thiadiazol-5-yl)piperidin-4-yl)-3-((6-(methylsulfonyl)pyridin-3-yl)oxy)pyrrolidin-2-one] | 28.1 | 4.0
14 | CC(C)(C)n1nnc(N2CCC(N3CC[C@H](Oc4ccc(S(C)(=O)=O)cc4F)C3=O)CC2)n1 [Example 95, (S)-1-(1-(2-(tert-butyl)2H-tetrazol-5-yl)piperidin-4-yl)-3-(2-fluoro-4-(methylsulfonyl)phenoxy)pyrrolidin-2-one] | 16.7 | 3.4
15 | CS(=O)(=O)c1cc(F)c(O[C@H]2CCN(C3CCN(c4nnc(C(F)(F)F)s4)CC3)C2=O)cc1F [Example 96, (S)-3-(2,5-difluoro-4-(methylsulfonyl)phenoxy)-1-(1-(5-(trifluoromethyl)-1,3,4-thiadiazol-2-yl)piperidin-4-yl)pyrrolidin-2-one] | 14.2 | 3.1
16 | CS(=O)(=O)c1cc(F)c(O[C@H]2CCN(C3CCN(c4cnc(C(F)(F)F)o4)CC3)C2=O)cc1F [Example 97, (S)-3-(2,5-difluoro-4-(methylsulfonyl)phenoxy)-1-(1-(2-(trifluoromethyl)oxazol-5-yl)piperidin-4-yl)pyrrolidin-2-one] | 19.0 | 4.1
17 | CS(=O)(=O)c1cc(F)c(O[C@H]2CCN(C3CCN(c4cnc(C(F)(F)F)s4)CC3)C2=O)cc1F [Example 98, (S)-3-(2,5-difluoro-4-(methylsulfonyl)phenoxy)-1-(1-(2-(trifluoromethyl)thiazol-5-yl)piperidin-4-yl)pyrrolidin-2-one] | 23.7 | 5.4

Reference: patent US20140256756A1, “PIPERIDINYL-SUBSTITUTED LACTAMS AS GPR119 MODULATORS” (Array BioPharma Inc., priority 2011, published 2014)
